Key:
[1] = test system: YUMC-S-P1, YUMC-P1-main, YUMC-P2-main cells; test: Cell viability assay (MTT), anti-cancer drug-sensitive and main mass PTC cells; format: cell-based, human
Method: (§1) Cell viability was measured using the MTT (3-(4,5-Dimethylthiazol-2-yl)-2,5-Diphenyltetrazolium Bromide) assay, cells were seeded in 96-well plates at 7×10^3 cells per well and incubated overnight to achieve 80% confluency. The detailed protocol can be found in our previous article. Data were expressed as a percentage of the signal observed in vehicle-treated cells and are shown as the means±SEM of triplicate experiments.
(§2) To evaluate to the anti-cancer efficacy of CKP1 and 2, combinatorial strategies with sorafenib or lenvatinib, we carried out cell viability assays for anti-cancer drug-sensitive (YUMC-S-P1) and main mass or lymph node metastasis PTC (YUMC-P1-main or YUMC-P2-main or YUMC-P1-meta or YUMC-P2-meta) cells treated with sorafenib or levatinib each agent treated alone or with CKP1 and CKP2.

[2] = test system: YUMC-S-P1 cells xenograft; test: Human PTC cell xenograft, anti cancer drug-sensitive PTC cells; format: in vivo, mice
Method: (§3) All experiments were approved by the Animal Experiment Committee of Yonsei University. YUMC-S-P1, YUMC-P1 and -P2-main or meta patient-derived PTC cells (4.4×10^6 cells/mouse) were cultured in vitro and then injected subcutaneously into the upper left flank region of female NOD/Shi-scid, IL-2Rγ KOJic (NOG) mice. After 15 days, tumor-bearing mice were grouped randomly (n=10 per group) and treated SERCA inhibitors, thapsigargin (25 mg/kg), candidate 33 (12 mg/kg) and 36 (12 mg/kg, p.o.) with 80 mg/kg sorafenib (p.o.) either alone or combination. Tumor size was measured every three day using calipers. Tumor volume was estimated using the following formula: L×S2/2 (L, longest diameter; S, shortest diameter). Animals were maintained under specific pathogen-free conditions. All experiments were approved by the Animal Experiment Committee of Yonsei University.
(§4) We developed mouse xenograft models using anti cancer drug-sensitive (YUMC-S-P1) and metastatic PTC (YUMC-P1 and -P2-meta) cells and evaluated the anticancer effect of monotherapy with sorafenib, lenvatinib or with SERCA inhibitors (thapsigargin, CKP1 and 2) as well as that of the combination therapy between sorafenib or lenvatinib and a SERCA inhibitor. […] No significant changes in resected tumor weight were found between any of the treatment groups (FIG. 5a to 5e).

[3] = test system: metastatic PTC cells (YUMC-P1 or -P2-meta) xenograft; test: Human PTC cell xenograft, metastatic PTC cells; format: in vivo, mice; conditions: for tumor shrinkage: YUMC-P1 or -P2-meta xenograft; for tumor shrinkage (summary statement): xenograft tumor model developed using patient-derived antineoplastic-resistant cells
Method: as §3, §4

[4] = test system: metastatic PTC (YUMC-P1-meta or YUMC-P2-meta) cells; test: Cell viability assay (MTT), metastatic PTC cells; format: cell-based, human
Method: as §1, §2

[5] = SERCA inhibitor alone treatment, whole PTC cells
[6] = in combination with sorafenib or lenvatinib, dose-dependent, YUMC-S-P1, YUMC-P1-main, YUMC-P2-main
[7] = SERCA inhibitor with sorafenib or lenvatinib
[8] = combination of sorafenib or lenvatinib with SERCA inhibitor
[9] = combinatorial with sorafenib or lenvatinib treatment, dose-dependent, YUMC-P1-meta or YUMC-P2-meta
[10] = sorafenib or lenvatinib without CKP1 and CKP2, dose-dependent, YUMC-S-P1, YUMC-P1-main, YUMC-P2-main
[11] = sorafenib or lenvatinib without SERCA inhibitors
[12] = sorafenib or lenvatinib treatment alone, YUMC-P1-meta or YUMC-P2-meta

| Compound | cell viability [1, 5] | cell viability [1, 6] | tumor size [2, 7] | tumor shrinkage [3, 8] | tumor shrinkage (summary statement) [3] | cell viability [4, 5] | cell viability [4, 9] | cell viability [1, 10] | tumor size [2, 11] | tumor shrinkage ([3]; monotherapy) | cell viability [4, 12] |
| --- | --- | --- | --- | --- | --- | --- | --- | --- | --- | --- | --- |
| Cc1cc(C=Nc2ccc(Cl)cc2)c2cccc(C)c2n1 [CKP1] | did not critical influence | significantly decreased | decreased significantly tumor size | substantial tumor shrinkage | significant tumor shrinkage | did not critical influence | remarkably restrained the viability |  |  |  |  |
| Cc1cc(N=Cc2ccc(Cl)cc2)c2cccc(C)c2n1 [CKP2] | did not critical influence | significantly decreased | decreased significantly tumor size | substantial tumor shrinkage | significant tumor shrinkage | did not critical influence | remarkably restrained the viability |  |  |  |  |
| COc1cc2nccc(Oc3ccc(NC(=O)NC4CC4)c(Cl)c3)c2cc1C(N)=O [lenvatinib, reference compound] |  |  |  |  |  |  |  | significantly decreased | decreased significantly tumor size | did not induce significant tumor shrinkage | no remarkably influenced |
| CNC(=O)c1cc(Oc2ccc(NC(=O)Nc3ccc(Cl)c(C(F)(F)F)c3)cc2)ccn1 [sorafenib, reference compound] |  |  |  |  |  |  |  | significantly decreased | decreased significantly tumor size | did not induce significant tumor shrinkage | no remarkably influenced |
| C/C=C(/C)C(=O)O[C@H]1C(C)=C2[C@H]([C@@H]1OC(=O)CCCCCCC)[C@@](C)(OC(C)=O)C[C@H](OC(=O)CCC)[C@@]1(O)[C@H]2OC(=O)[C@@]1(C)O [thapsigargin, reference compound] | did not critical influence |  | decreased significantly tumor size | substantial tumor shrinkage |  | did not critical influence | remarkably restrained the viability |  |  |  |  |

Reference: patent US20250145573A1, “COMPOSITION FOR PREVENTING, ALLEVIATING OR TREATING CANCER” (CKP Therapeutics, Inc., priority 2023, published 2025)
